Our source for the inhibition and IC50 values is ChEMBL document CHEMBL1127754, “Design and synthesis of seco-oxysterol analogs as potential inhibitors of 3-hydroxy-3-methylglutaryl-coenzyme A (HMG-CoA) reductase gene transcription” (J Med Chem, 1994).

Assay type in all cases: cell-based
In test [1] the target is T1, 3-hydroxy-3-methylglutaryl-coenzyme A reductase (Homo sapiens) (UniProt P04035).
T1 sequence (whole entry): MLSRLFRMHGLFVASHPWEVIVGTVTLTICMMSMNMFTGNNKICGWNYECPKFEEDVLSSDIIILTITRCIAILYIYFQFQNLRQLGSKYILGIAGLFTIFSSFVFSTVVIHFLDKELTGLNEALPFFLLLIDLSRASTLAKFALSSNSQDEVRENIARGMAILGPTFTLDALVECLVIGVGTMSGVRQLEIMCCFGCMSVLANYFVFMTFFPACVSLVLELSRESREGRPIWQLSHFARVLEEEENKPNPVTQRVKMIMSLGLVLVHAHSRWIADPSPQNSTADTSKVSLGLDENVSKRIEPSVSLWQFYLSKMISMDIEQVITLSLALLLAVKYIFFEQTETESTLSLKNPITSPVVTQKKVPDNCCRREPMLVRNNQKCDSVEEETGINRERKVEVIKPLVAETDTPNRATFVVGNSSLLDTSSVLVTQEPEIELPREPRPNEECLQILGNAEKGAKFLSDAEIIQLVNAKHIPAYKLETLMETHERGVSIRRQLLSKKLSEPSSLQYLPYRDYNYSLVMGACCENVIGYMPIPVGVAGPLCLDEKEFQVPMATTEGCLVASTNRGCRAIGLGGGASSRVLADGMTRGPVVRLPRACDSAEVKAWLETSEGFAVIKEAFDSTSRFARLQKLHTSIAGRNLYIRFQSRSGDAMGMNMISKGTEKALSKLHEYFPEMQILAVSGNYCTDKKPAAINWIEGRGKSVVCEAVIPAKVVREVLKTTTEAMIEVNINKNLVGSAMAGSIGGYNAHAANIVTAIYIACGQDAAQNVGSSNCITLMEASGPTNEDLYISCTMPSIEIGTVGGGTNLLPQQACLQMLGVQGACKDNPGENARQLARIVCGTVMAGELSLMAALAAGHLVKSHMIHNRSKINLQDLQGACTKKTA
Kind of test: Tested for the percent inhibition against HMG-CoA reductase transcription in HepG2 cells. Also on record: concentration or dose not given beside the values. The settings on record: concentration not given here.

For test [2], the target named is T2, 3-hydroxy-3-methylglutaryl-coenzyme A reductase (Homo sapiens, UniProt P04035).
T2 sequence (P04035 whole entry): T1 sequence (whole entry)
The test is described as follows: Tested for its inhibitory activity against HMG-CoA reductase transcription in HepG2 cells.

Test [3] has as its target T1, 3-hydroxy-3-methylglutaryl-coenzyme A reductase (Homo sapiens). The test is described as follows: Tested for its percent inhibition against HMG-CoA reductase transcription in HepG2 cells in HMG-CoA reductase m-RNA assay. The settings on record: concentration not given here.
Test [4] shares this target. Kind of test: Tested for its percent inhibition against HMG-CoA reductase transcription in HepG2 cells in HMG-CoA reductase assay. The settings on record: concentration not given here.
Test [5] has the same target. Kind of test: Tested for its percent inhibition against HMG-CoA reductase transcription in HepG2 cells in LDL-receptor binding assay. The settings on record: concentration not given here.

As usually defined, the inhibition is the percentage by which the read-out fell short of the control. As for `CC(C)(O)CCCC[C@H]1CC[C@@H](CC[C@]2(C)CC[C@@H](O)CC2)C1`, the inhibition in test [1] worked out at 0%.

Turning to `CC(C)CCCC[C@@H]1C[C@H](/C=C/[C@]2(C)CC[C@@H](O)CC2)[C@@H](O)[C@H]1O` (stereo in doubt; 7), the inhibition in test [1] is 0%.

Regarding `CC(C)(O)CCCCc1ccc(/C=C/[C@]2(C)CC[C@@H](O)CC2)cc1`, the inhibition in test [1] is 0%.

By IC50 is commonly meant the concentration at which inhibition is half-maximal. In the case of `CC(C)(O)CCCCc1cccc(/C=C/[C@]2(C)CC[C@@H](O)CC2)c1`, 10 µM corresponded to half-maximal inhibition in test [2] (IC50). The inhibition in test [3] came out at 72.7%; in test [4] it was 29.7%; in test [1], 46.3%.

Turning to `CC(C)(O)CCCC[C@H]1CC[C@@H](/C=C/[C@]2(C)CC[C@@H](O)CC2)C1` (stereo in doubt; 28), the inhibition in test [1] worked out at 0%.

`CC(C)(O)CCCC[C@H]1CC[C@@H](/C=C/[C@]2(C)CC[C@@H](O)CC2)C1` (stereo in doubt; 6) returned an inhibition in test [1] of 0%.

Consider `CC(C)(O)CCCCc1cccc(CC[C@]2(C)CC[C@@H](O)CC2)c1`, for which the inhibition in test [1] is 29.3%.

In test [2], `C[C@H](CCCC(C)(C)O)[C@H]1CC[C@H]2[C@@H]3CC=C4C[C@@H](O)CC[C@]4(C)[C@H]3CC[C@]12C` had an IC50 of 0.3 µM. Further, the inhibition in test [5] worked out at 64%; in test [3] it was 58.2%; in test [4], 48.4%; in test [1] it was 70%.

With `CC(C)CCCC[C@@H]1C[C@H](/C=C/[C@]2(C)CC[C@@H](O)CC2)[C@@H](O)[C@H]1O` (stereo in doubt; 37), the inhibition in test [1] stood at 0%.

In turn, `CC(C)(O)CCCCc1ccc(CC[C@]2(C)CC[C@@H](O)CC2)cc1` showed an inhibition in test [1] of 0%.
